Assay results taken from patent US11352354B2, “Substituted penta-fused hexa-heterocyclic compounds, preparation method therefor, drug combination and use thereof” (Xiamen University, priority 2017, dated 2022).

Assays:
[1] = target: PIKfyve protein (Homo sapiens (Human), UniProt Q9Y2I7); assay: Dissociation equilibrium constant (Kd) of compound and PIKfyve protein, DiscoverX KINOMEscan; format: binding; settings: eleven 3-fold dilutions, curve fitting
Experimental: II. Determination of Dissociation Equilibrium Constant (Kd Value) of Compound and PIKfyve Protein
The Kd value was determined by DiscoverX's KINOMEscan™ technology according to the following steps:
1. Preparation of magnetic beads: biotin-labeled small molecule ligand and avidin-coated magnetic beads were allowed to interact at room temperature for 30 minutes, and then added with excess biotin, followed by washing with a blocking solution (1% BSA, 0.05% Tween 20, 1 mM DTT) to remove unbound ligand.
2. Binding reaction: in a 384 plate, 0.02 mL system, DNA-labeled protein, small molecule ligand-bound magnetic beads, and different concentrations of compound to be tested were mixed in a reaction solution (0.17×PBS, 0.05% Tween 20, 6 mM DTT) at room temperature with shaking for 1 hr, to which was added an eluant (1×PBS, 0.05% Tween 20) for elution. Magnetic beads were resuspended by an eluant (1×PBS, 0.05% Tween 20, 0.5 μM non-biotin-labeled small molecule ligand), and shaken at room temperature for 30 min before separating out the eluant.
3. Determination of Kd value: the content of protein in the above eluate was determined by qPCR. Eleven 3-fold dilution concentrations were determined for the compound to be tested, with 3 DMSO controls for each concentration, and the Kd value was obtained by curve fitting.

[2] = test system: JeKo-1 cells; assay: Tumor cell growth inhibition by MTS method, JeKo-1; format: cell-based; settings: Homo sapiens, JeKo-1, 120 h, 5 days of culture; for inhibition at 10 µM: read-out: cell growth inhibition rate of compounds at 10 μM
Experimental: III. Determination of IC50 Value of Compound for Inhibiting Tumor Cell Growth by MTS Method
1. Cell plating: cells in logarithmic growth phase were counted and inoculated in a 96-well plate (20000 cells per well).
2. Administrating agent to cell: 10 mM compound mother solution in DMSO was subjected to 3 fold-gradient dilution, to set 8 concentrations, which were then added to various wells, with three replicates for each concentration, and three blank wells (only culture medium) and three negative controls (containing 0.1% DMSO) on each plate.
3. […] The OD value at 490 nm was measured with microplate reader OD490. The cell growth inhibition rate was calculated by the following formula: Cell growth inhibition rate %=1−(ODexperimental group−ODblank group)/(ODnegative group−ODblank group)×100%
The semi-inhibitory concentration IC50 of the compound acting on cell growth was calculated using GradPad Prism 5 software according to the measured cell growth inhibition rate.
In the following table it lists the IC50 value or the inhibition rates of some compounds at 10 μM against JeKo-1 cells

[3] = test system: Toledo cells; assay: Growth inhibition of PIKfyve-mediated tumor cells by Cell Titer Glo method, Toledo; format: cell-based; settings: Homo sapiens, 120 h, CellTiter-Glo, 5 days of culture, read-out: Inhibition rate % (Toledo)
Experimental: (§1) IV. Determination of Growth Inhibition Rates of Compounds Against PIKfyve-Mediated Tumor Cells by Cell Titer Glo Method
(§2) 1. Cell plating: cells in logarithmic growth phase were counted and inoculated in 384-well plate.
(§3) 3. […] RLU was measured on PHERAstar Plus.

[4] = test system: ST486 cells; assay: Growth inhibition of PIKfyve-mediated tumor cells by Cell Titer Glo method, ST486; format: cell-based; settings: Homo sapiens, 120 h, CellTiter-Glo, 5 days of culture, read-out: Inhibition rate % (ST486)
Experimental: as §1, §2, §3

[5] = test system: MDA-MB-231 cells; assay: Vacuolation of MDA-MB-231 cells caused by inhibition of compounds on PIKfyve (microscopy); format: cell-based; settings: MDA-MB-231 cells; also: key: '+' represents the degree of vacuolation; ++: more '+' indicates more obvious vacuolation; +++: more '+' indicates more obvious vacuolation; ++++: more '+' indicates more obvious vacuolation; '−' represents no vacuolation
Method in brief: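 MDA-MB-231 cells in 12-well plates at 37 °C, 5% CO2 were observed by microscopy after 24 and 48 h of culture for cytoplasmic vacuolation as a readout of PIKfyve inhibition. Scoring was semi-quantitative, from − (none) to increasing +.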

Chain of PIKfyve protein (Q9Y2I7 whole entry): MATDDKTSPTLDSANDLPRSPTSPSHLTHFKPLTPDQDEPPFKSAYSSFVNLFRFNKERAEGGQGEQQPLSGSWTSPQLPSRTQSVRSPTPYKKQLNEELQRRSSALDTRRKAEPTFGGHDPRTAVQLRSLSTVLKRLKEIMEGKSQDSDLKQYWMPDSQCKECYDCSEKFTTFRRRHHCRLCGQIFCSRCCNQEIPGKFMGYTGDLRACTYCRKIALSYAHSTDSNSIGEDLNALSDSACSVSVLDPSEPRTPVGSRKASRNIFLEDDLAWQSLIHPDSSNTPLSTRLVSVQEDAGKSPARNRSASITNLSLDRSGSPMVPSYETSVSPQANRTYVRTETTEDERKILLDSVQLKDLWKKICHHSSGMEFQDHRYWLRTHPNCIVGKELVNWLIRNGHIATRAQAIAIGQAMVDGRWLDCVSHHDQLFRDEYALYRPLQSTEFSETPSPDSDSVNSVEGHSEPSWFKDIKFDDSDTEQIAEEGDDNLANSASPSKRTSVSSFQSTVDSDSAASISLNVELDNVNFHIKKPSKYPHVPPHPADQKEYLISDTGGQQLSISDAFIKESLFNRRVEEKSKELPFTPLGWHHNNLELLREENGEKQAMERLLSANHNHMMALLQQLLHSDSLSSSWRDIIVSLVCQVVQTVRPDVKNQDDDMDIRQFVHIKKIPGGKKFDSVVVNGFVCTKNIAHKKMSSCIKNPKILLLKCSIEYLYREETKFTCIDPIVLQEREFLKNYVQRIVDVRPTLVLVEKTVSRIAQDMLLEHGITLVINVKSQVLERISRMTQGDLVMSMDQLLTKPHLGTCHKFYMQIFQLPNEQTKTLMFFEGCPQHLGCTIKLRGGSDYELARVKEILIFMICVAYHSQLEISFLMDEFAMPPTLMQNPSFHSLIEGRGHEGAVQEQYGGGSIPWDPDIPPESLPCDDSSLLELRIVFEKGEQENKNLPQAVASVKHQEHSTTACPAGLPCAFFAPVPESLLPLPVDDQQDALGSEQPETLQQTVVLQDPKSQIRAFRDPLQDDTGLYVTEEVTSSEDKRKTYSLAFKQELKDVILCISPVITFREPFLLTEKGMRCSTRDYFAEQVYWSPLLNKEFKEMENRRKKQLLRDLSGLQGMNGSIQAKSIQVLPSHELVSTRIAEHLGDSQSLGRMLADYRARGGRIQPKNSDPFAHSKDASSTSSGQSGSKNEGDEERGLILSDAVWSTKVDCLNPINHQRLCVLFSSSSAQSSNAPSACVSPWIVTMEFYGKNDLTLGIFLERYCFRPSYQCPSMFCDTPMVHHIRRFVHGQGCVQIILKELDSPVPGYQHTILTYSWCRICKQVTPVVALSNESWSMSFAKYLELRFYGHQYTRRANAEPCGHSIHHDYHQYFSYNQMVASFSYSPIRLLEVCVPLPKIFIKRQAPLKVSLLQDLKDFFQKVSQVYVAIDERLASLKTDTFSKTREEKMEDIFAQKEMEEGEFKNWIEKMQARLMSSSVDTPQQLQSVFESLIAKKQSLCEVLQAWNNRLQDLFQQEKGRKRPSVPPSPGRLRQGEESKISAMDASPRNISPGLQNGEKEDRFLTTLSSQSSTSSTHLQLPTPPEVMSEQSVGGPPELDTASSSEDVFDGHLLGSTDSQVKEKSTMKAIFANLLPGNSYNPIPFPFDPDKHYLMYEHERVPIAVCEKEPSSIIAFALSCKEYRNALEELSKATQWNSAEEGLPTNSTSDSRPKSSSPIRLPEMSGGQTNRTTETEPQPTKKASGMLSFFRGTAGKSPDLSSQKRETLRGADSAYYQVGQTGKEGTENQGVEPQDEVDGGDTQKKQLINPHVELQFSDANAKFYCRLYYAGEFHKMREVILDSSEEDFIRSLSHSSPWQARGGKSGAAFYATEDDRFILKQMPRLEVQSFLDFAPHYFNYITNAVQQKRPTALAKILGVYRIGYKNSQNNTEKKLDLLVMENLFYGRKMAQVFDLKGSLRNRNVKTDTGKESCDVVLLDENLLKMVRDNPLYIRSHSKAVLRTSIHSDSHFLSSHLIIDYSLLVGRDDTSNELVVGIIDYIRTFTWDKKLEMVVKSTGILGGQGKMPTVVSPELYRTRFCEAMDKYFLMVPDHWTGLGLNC

SMILES | Kd [1] [nM] | IC50 [2] [nM] | inhibition at 3.3 µM [3] [%] | inhibition at 3.3 µM [4] [%] | degree of vacuolation, 1 μM, 24 h [5] | degree of vacuolation, 1 μM, 48 h [5] | degree of vacuolation, 10 μM, 24 h [5] | degree of vacuolation, 10 μM, 48 h [5] | inhibition at 10 µM [2] [%]
Cc1ccc(NC(=O)c2ccc(CN3CCN(C)CC3)c(C(F)(F)F)c2)cc1Nc1nc(-c2cccnc2)c2[nH]ccc2n1 [V-c-22] | 21000 | 1540 | 64.2 | 57.1 |  |  |  |  | 
Cc1ccc(C(=O)Nc2ccc(CN3CCN(C)CC3)c(C(F)(F)F)c2)cc1Nc1nc(-c2cccnc2)c2[nH]ccc2n1 [V-c-11] | 700 |  | 95.3 | 96.2 | − | − | − | − | 
Cc1cn(-c2cc(NC(=O)c3ccc(C)c(Nc4nc(-c5cccnc5)c5[nH]ccc5n4)c3)cc(C(F)(F)F)c2)cn1 [V-c-10] | 3500 |  | 94.8 | 93 | − | − | ++ | ++ | 
Cc1ccc(NC(=S)Nc2cccc(C(F)(F)F)c2)cc1Nc1nc(-c2cccnc2)c2[nH]ccc2n1 [V-c-16] | 110 | 6220 | 99.5 | 60.3 | ++ | ++ | ++ | ++ | 
CS(=O)(=O)Nc1cccc(Nc2nc(-c3cccnc3)c3[nH]ccc3n2)c1 [V-c-1] | 130 |  | 43.1 | 35.2 | − | − | ++ | ++ | 
Cc1ccc(NC(=O)c2cccc(C(F)(F)F)c2)cc1Nc1nc(-c2ccncc2)c2[nH]ccc2n1 [V-c-39] | > 30000 |  | 49.1 | 9.57 |  |  |  |  | 

These reach a lower Kd [1]. Values come first.

Kd [1] [nM] | IC50 [2] [nM] | SMILES | inhibition at 3.3 µM [3] [%] | inhibition at 3.3 µM [4] [%] | degree of vacuolation, 1 μM, 24 h [5] | degree of vacuolation, 1 μM, 48 h [5] | degree of vacuolation, 10 μM, 24 h [5] | degree of vacuolation, 10 μM, 48 h [5] | inhibition at 10 µM [2] [%]
16 | 4950 | Cc1ccc(C(=O)Nc2cccc(NS(C)(=O)=O)c2)cc1Nc1nc(-c2cccnc2)c2[nH]ccc2n1 [V-c-6] | 93.9 | 69.9 | + | ++ | +++ | +++ | 
33 | 5940 | O=C(Nc1cccc(C(F)(F)F)c1)c1cccc(Nc2nc(-c3cccnc3)c3[nH]ccc3n2)c1 [V-c-4] | 99.5 | 76.2 | ++ | ++ | +++ | +++ | 
20 |  | Cc1ccc(C(=O)Nc2cc(C(F)(F)F)ccc2Cl)cc1Nc1nc(-c2cccnc2)c2[nH]ccc2n1 [V-c-14] | 99.6 | 52.2 | ++ | − | ++ | ++ | 46.6
16 |  | Cc1ccc(C(=O)Nc2cc(C(F)(F)F)ccc2F)cc1Nc1nc(-c2cccnc2)c2[nH]ccc2n1 [V-c-13] | 99.7 | 85.2 | ++ | − | ++ | ++ | 34.3
6.4 | 862 | O=C(Nc1cccc(Nc2nc(-c3cccnc3)c3[nH]ccc3n2)c1)c1cccc(C(F)(F)F)c1 [V-c-18] | 95.2 | 96 | +++ | +++ | +++ | +++ | 
